This note sets out measurements from patent publication US11833251B2, “Pharmaceutical methods and compositions” (THE UNIVERSITY OF SUSSEX, priority 2018, dated 2023).

The series is described as follows: Saturation solubility test of propranolol in various solvents at 37° C. It counts as physicochemical.

In brackets after ≈: the same amount, converted by molar mass.

In the case of `CC(C)NCC(O)COc1cccc2ccccc12` (centres unmarked) [Propranolol, propranolol], the “Mean concentration (mg/ml) ± SD” value is, setting by setting: (propranolol in Kolliphor EL, 37° C., n = 3) 1.32 ± 0.00 mg/mL; (propranolol in Tween 20, 37° C., n = 3) 1.86 ± 0.00 mg/mL; (propranolol in Tween 80, 37° C., n = 3) 1.89 ± 0.01 mg/mL. The solubility thermodynamic (propranolol in Water, 37° C., n = 3, read-out: Mean concentration (mg/ml) ± SD) amounted to 29.03 ± 0.12 mg/mL (≈ 112 mM). Further, the Inference result reads like this: (solubility of propranolol in Kolliphor EL) “Slightly soluble”; (solubility of propranolol in Tween 20) “Slightly soluble”; (solubility of propranolol in Tween 80) “Slightly soluble”; (solubility of propranolol in Water) “Sparingly soluble”.
